Tests used:
[1] = Analysis of glutaraldehyde release after heat-aging; format: physicochemical; details: sterile deionized water, molar equivalent of 2000 ppm glutaraldehyde; initial and heat-aged at 55° C. for 2 h or 24 h
Protocol: Samples of the IPHA-adduct are analyzed for glutaraldehyde content. Samples are prepared in sterile deionized water at the molar equivalent of 2000 ppm glutaraldehyde. A standard of 500 ppm glutaraldehyde is also prepared. An initial measurement is taken just after sample preparation. Samples are then heat-aged at 55° C. for 2 h or 24 h and analyzed again. Glutaraldehyde concentration is measured directly via GC and after pre-column derivatization by HPLC.

[2] = system: T. thermophilus; test: Biocidal efficacy against thermophilic bacteria at 70° C., dilution to extinction; format: cell-based; details: equivalent of 100 ppm glutaraldehyde, after 5 days with re-challenging
Protocol: b. Thermophilic Bacteria. A 48-72 hour old culture of T. thermophilus is pelleted by centrifuging at 2000 g and the pellet resuspended in 10 times the culture volume of buffer (PBS or carbonate-buffered synthetic freshwater). The suspension is distributed into 10 mL aliquots in glass screw-cap tubes. Each tube is then treated with glutaraldehyde or an adduct and incubated at 70° C. At indicated timepoints, cell density in each tube is measured via dilution to extinction by serially diluting a sample and plating dilutions on solid media.

Which “Glutaraldehyde concentration after pre-column derivatization by HPLC” value [1] does the source give for `CC(C)/[N+]([O-])=C/CCC/C=[N+](\[O-])C(C)C` [IPHA-adduct, N,N′-(pentane-1,5-diylidene)bis(propan-2-amineoxide)] here?
Its value is “low levels of glutaraldehyde”.

And the “Glutaraldehyde concentration measured directly via GC” value [1]?
Its value is “No glutaraldehyde is detected”.

With `O=CCCCC=O` [glutaraldehyde] as the compound, how does the “Control of bacterial levels after 5 days” value [2] read?
The value was “fails to control bacterial levels”.
